Experiments:
[1] = test system: tumor-derived xenograft models; settings: many tumor-derived xenograft models; cited from earlier work
HCT116 tumor cells = assay: HCT116 tumor model in NSG-SGM3 and humanized NSG-SGM3 mice; type: in vivo, mouse; settings: three doses, 3 mg/kg
Text: Humanized mouse tumor models. Humanized mouse reconstitution was previously described (Qiao et al., 2019). Briefly, four-week-old NSG-SGM3 female mice were irradiated with 100 cGy (X-ray irradiation with X-RAD 320 irradiator) one day prior to human CD34+ cells transfer. Cord blood was obtained from UT Southwestern Parkland Hospital. Human CD34+ cells were purified from cord blood by density gradient centrifugation (Ficoll® Paque Plus, GE healthcare) followed by positive immunomagnetic selection with anti-human CD34 microbeads (Stemcell). 1×10^5 CD34+ cells were intravenously injected into each recipient mouse. 12 weeks after engraftment, humanized mice with over 50% human CD45+ cells reconstitution and age and sex matched non-humanized mice were inoculated with 1×10^6 HCT116 tumor cells subcutaneously on the right flank. 3 mg/kg 6-thio-dG was intraperitoneally given on days 7, 8 and 9. Tumor volumes were measured twice a week. Experiments were performed in compliance with UTSW Human Investigation Committee protocol and UTSW Institutional Animal Care and Use Committee.

[2] = test system: bone marrow derived DCs (BMDCs); assay: In vitro co-culture of BMDC with 6-thio-dG pretreated tumor cells and T cells; type: cell-based, mouse
Description: In vitro co-culture of bone marrow dendritic cells (BMDC) and T cells. Single-cell suspensions of bone marrow (BM) cells were collected from tibias and femurs of C57BL/6 mice. The BM cells were placed in 10 cm dish and cultured with complete RPMI 1640 medium containing 20 ng/mL recombinant mouse GM-CSF (BioLegend). Fresh medium with was added into the culture on day 3 and day 6. The BMDCs were harvested Day 7. CD8+ T cells were isolated from lymph nodes and spleens of OT-1 transgenic mice with a negative CD8+ T cell isolation kit (Stemcell). MC38-OVA cells pretreated with 200 nM 6-thio-dG for 4 hrs. Then the drug was washed out, tumor cells were continued to culture for 72 hrs and were harvested on the same day as BMDC harvest. Then MC38-OVA cells were co-cultured with BMDC for overnight. Supernatant was collected for IFN-β ELISA test (PBL). BMDCs were sorted with CD11c+ positive selection kit (Stemcell) and co-cultured with OT-1 CD8+ T cells for 48 hrs. Supernatants were collected and IFN-γ was measured by cytometric bead array assay (BD Biosciences).
Quantitative real-time PCR. Real-time PCR was performed with SsoAdvanced™ Universal SYBR® Green Supermix (Bio-Rad) according to the manufacturer's instructions with different primer sets (human MT-CO1, forward primer 5′-[…]-3′ (SEQ ID NO: 3), reverse primer 5′-CGGGGCATTCCG GATAGGCC-3′ (SEQ ID NO: 4); human18s rRNA, forward primer 5′-[…]-3′ (SEQ ID NO: 5), reverse primer 5′-[…]-3′ (SEQ ID NO: 6); mouse IFN-β, forward primer 5′-ATGAGTGGTGGTTGCAGGC-3′ (SEQ ID NO: 7), reverse primer 5′-[…]-3′ (SEQ ID NO: 8); mouse GAPDH, forward primer 5′-CATCAAGAA GGTGGTGAAGC-3′ (SEQ ID NO: 9), reverse primer 5′-[…]-3′) (SEQ ID NO: 10) mouse GAPDH was used as the internal control. 2^−ΔΔCt method was used to calculate relative expression changes.

tumor cells = assay: Autophagy in tumor cells (data not shown); type: cell-based; settings: after 6-thio-dG treatment
MC38 cells = assay: Telomere dysfunction Induced Foci (TIF) and micronuclei assays in cells; type: cell-based, mouse
Description: Telomere dysfunction Induced Foci (TIF) and micronuclei assays. The TIF assay is based on the co-localization detection of DNA damage by an antibody against DNA damage response factors such as gamma-H2AX, 53BP1, and antibody against telomeric proteins or telomeres using telomere sequence-specific peptide nucleic acid (PNA) probe (Mender and Shay, 2015). Briefly, cells were seeded into 4-well chamber slides. Next day, cells were treated with 1 μM 6-thio-dG for 24 hrs (for TIF assay) or 1-3 μM 6-thio-dG for 48 hrs (for micronuclei assay). Slides were then rinsed twice with PBS and fixed in 4% formaldehyde (Thermo Fisher) in PBS for 10 mins. Then, cells were washed twice with PBS and permeabilized in 0.5% Triton X-100 in PBS for 10 min. Following permeabilization, cells were washed three times with PBS. Cells were blocked with 10% goat serum in 0.1% PBST (TritonX-100) for 1 hr. Gamma-H2AX (TIF assay, mouse, 1:1000) (Millipore) or lamin A/C (micronuclei assay, mouse, 1:500) (Santa Cruz) was diluted in blocking solution and incubated on cells for 2 hrs. Following three washes with PBST (1×PBS in 0.1% Triton) and 3 washes with PBS, cells were incubated with Alexaflour 568 conjugated goat anti-mouse (1:500) (Invitrogen) for 40 mins, then washed five times with 0.1% PBST. Cells were fixed in 4% formaldehyde in PBS for 20 mins at RT. The slides were sequentially dehydrated with 70%, 90%, 100% ethanol followed by denaturation with hybridization buffer containing FAM-conjugated telomere sequence (C-rich)-specific PNA probe, 70% formamide, 30% 2×SSC, 10% (w/v) MgCl2·6H2O (Fisher Sci), 0.25% (w/v) blocking reagent for nucleic acid hybridization and detection (Roche) for 7 mins at 80° C. on a heat block, followed by overnight incubation at RT. Slides were washed sequentially with 70% formamide (Ambion)/0.6×SSC (Invitrogen) (2×1 hr), 2×SSC (1×15 mins), PBS (1×5 mins) and sequentially dehydrated with 70%, 90%, 100% ethanol, then mounted with Vectashield mounting medium with DAPI (Vector Laboratories). […] TIFs were quantified using Image J.

Nc1nc2c(ncn2[C@H]2C[C@H](O)[C@@H](CO)O2)c(=S)[nH]1 [6-thio-dG, 6-thio-2′-deoxyguanosine]
side effects in xenograft models [1]: minimal side effects | tumor response in xenograft models [1]: rapid tumor shrinkage or growth arrest | tumor growth (HCT116 tumor cells; humanized NSG-SGM3 mice): significantly delayed tumor growth | tumor growth (HCT116 tumor cells; immunocompromised NSG-SGM3 mice): did not have significant difference | IFN-γ production by OT-1 CD8+ T cells (cross-priming capacity of DCs) ([2]; MC38-OVA pretreated with 200 nM 6-thio-dG, DC/T cell co-culture 48 hrs, CBA): significant increase | IFN-β in DCs, WT vs Tmem173KO ([2]; MC38 pretreated with 200 nM 6-thio-dG, qPCR): induced IFN-β production in DCs in a STING-dependent manner | IFN-β production by DCs ([2]; co-culture with tumor cells pretreated with 200 nM 6-thio-dG, ELISA): significantly increased | activation of autophagy in tumor cells (tumor cells): did not see activation of autophagy | interphase bridges between daughter cells during telophase (MC38 cells): induced interphase bridges | telomere stress by TIF assay (MC38 cells; 1 μM 6-thio-dG for 24 hrs): induced telomere damages | micronuclei (MC38 cells; 1 μM 6-thio-dG, 48 hrs): induced micronuclei

Reference: patent US12097213B2, “Sequential treatment of cancers using 6-thio-dG, checkpoint inhibitors and radiation therapy” (The Board of Regents of the University of Texas System, priority 2020, dated 2024)
